Assay results from patent US8906952B2, “Indole derivative or pharmaceutically acceptable salt thereof, preparation method thereof, and pharmaceutical composition for preventing or treating metabolic diseases containing same as active ingredient” (Korea Research Institute of Bioscience and Biotechnology, priority 2011, dated 2014).
Read-outs that look alike come from different tables or passages of the source.

Key:
Assay type in all cases: biochemical
[1] = biological target: T1, human DGAT2 (Homo sapiens, UniProt Q96PD7); assay: DGAT enzyme inhibition test, hDGAT2 enzyme from sf9 insect cells (DGAT2 selectivity)
T1 construct: made in house; host or cells: sf9 insect cells
T1 sequence (Q96PD7 1-388): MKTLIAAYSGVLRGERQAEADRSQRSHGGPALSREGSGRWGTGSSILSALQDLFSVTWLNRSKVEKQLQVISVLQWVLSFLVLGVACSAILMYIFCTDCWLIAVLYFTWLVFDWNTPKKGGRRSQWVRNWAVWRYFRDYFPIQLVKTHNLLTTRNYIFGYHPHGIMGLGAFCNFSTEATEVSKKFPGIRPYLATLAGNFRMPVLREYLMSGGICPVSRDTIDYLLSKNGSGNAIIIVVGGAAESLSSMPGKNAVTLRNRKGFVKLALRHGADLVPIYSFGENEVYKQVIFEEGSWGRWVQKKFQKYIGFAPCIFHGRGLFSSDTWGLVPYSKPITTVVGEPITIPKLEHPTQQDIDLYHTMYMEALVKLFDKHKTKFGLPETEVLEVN
Text: (§1) To investigate inhibitory effect of the compounds of Examples 1-33 against DGAT enzyme activity, DGAT enzyme inhibition and DGAT2 selectivity were investigated using zymogen including:
1) hDGAT1 and hDGAT2 enzymes, derived from insect cell overexpressing human DGAT1 and DGAT2 (‘sf9’), respectively,
(§2) To be specific, for the purpose of measuring human-derived DGAT enzyme inhibitory activity, using the zymogen, including enzymes derived from insect cell overexpressing human DGAT1 and DGAT2 (‘sf9’), microsomal protein isolated from human duodenal adenocarcinoma (‘Hutu 80’), and microsomal protein isolated from rat, and according to Coleman et al., (Methods Enzymol., 98-103, 1992), and substrate including 1,2-diacylglycerol(Sigma, D0138) and [^14C]palmitoyl-CoA (Amersham, CFA583), the amount of radiation of [^14C]triacylglycerol produced after enzymatic reaction was measured.
(§3) To be more specific, to the reaction solution containing 175 mM Tris-HCl (pH 8.0), 20 μl bovine serum albumin (10 mg/ml), 100 mM magnesium chloride, 30 μM [^14C]palmitoyl CoA (0.02 μCi, Amersham) and 200 μM 1,2-dioleoylglycerol, reagent dissolved in dimethylsulfoxide (10.0 μl) was added. After introducing 100 to 200 μg isolated microsomal protein and allowing the same to react at 25° C. for 10 min, the reaction was stopped by adding 1.5 ml stop solution (2-propanol:heptane:water=80:20:2, v:v:v). To isolate the product of the reaction (i.e., [^14C]triacylglycerol), 1 ml heptane and 0.5 ml distilled water were added and then decocted. After taking 1 ml supernatant, 2 ml alkaline ethanol solution (ethanol:0.5 N sodium hydroxide:water=50:10:40, v:v:v) were added and then decocted. After taking 0.65 ml supernatant from the decoction, the amount of radiation was measured with liquid scintillation counter (LSC). The DGAT inhibitory activity was calculated with Mathematical Expression 1 below:
(§4) T denotes cpm of experimental group in which the enzymatic reaction solution was treated with the sample,
(§5) C denotes cpm of control group in which the enzymatic reaction solution was not treated with the sample, and
(§6) B denotes cpm of control group treated with the sample without zymogen.

[2] = biological target: T2, hDGAT-1 (HuTu 80) (Homo sapiens, UniProt O75907); assay: DGAT enzyme inhibition test, microsomal protein from human duodenal adenocarcinoma (Hutu 80); conditions: microsomal protein from HuTu 80
T2 construct: microsomal protein isolated from human duodenal adenocarcinoma (‘Hutu 80’); endogenous in cells; host or cells: HuTu 80 human duodenal adenocarcinoma cells (microsomes)
T2 sequence (O75907 1-488): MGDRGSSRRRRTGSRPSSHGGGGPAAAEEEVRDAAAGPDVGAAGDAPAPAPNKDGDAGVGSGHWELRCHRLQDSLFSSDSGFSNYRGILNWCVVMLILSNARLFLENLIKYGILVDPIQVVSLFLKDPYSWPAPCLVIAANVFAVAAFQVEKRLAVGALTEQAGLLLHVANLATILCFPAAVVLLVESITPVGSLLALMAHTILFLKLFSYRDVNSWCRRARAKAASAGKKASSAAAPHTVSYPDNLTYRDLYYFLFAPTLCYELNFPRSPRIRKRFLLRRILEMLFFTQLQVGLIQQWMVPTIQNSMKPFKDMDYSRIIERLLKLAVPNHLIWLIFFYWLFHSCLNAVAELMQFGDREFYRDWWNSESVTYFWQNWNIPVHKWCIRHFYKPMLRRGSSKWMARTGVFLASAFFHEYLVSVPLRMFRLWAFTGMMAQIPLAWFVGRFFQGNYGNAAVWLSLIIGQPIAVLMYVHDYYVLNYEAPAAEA
Text: as §1
2) DGAT enzyme derived from human duodenal adenocarcinoma (‘Hutu 80’), and
as §2, §3, §4, §5, §6

[3] = biological target: T3, DGAT-1 (rat liver) (Rattus norvegicus, UniProt Q9ERM3); assay: DGAT enzyme inhibition test, rat liver-derived DGAT enzyme; conditions: rat liver microsomal protein
T3 construct: microsomal protein isolated from rat; from tissue; host or cells: rat liver microsomes
T3 sequence (Q9ERM3 1-498): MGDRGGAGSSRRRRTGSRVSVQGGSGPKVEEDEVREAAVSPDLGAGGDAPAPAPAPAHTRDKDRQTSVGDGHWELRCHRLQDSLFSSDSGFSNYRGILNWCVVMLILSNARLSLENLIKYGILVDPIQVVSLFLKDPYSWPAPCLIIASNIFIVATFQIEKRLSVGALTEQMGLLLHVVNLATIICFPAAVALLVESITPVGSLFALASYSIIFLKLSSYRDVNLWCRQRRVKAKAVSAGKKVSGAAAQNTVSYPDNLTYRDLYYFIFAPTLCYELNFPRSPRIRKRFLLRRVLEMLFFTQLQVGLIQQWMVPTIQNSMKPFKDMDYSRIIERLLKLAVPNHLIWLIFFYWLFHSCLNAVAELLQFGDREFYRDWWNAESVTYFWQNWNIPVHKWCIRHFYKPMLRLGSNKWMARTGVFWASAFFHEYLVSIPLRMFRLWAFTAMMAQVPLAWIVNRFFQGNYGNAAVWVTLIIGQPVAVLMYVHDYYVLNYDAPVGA
Text: as §1
3) rat liver-derived DGAT enzyme.
as §2, §3, §4, §5, §6

[4] = 10 μM, enzyme from sf9 cells overexpressing hDGAT2, read-out: hDGAT-2 (sf9) inhibition rate(%)at 10 μM
[5] = concentration of 10 μM, read-out: hDGAT2 inhibition

| Compound | inhibition at 10 µM [1, 4] [%] | IC50 [2] [µM] | IC50 [3] [µM] | inhibition at 10 µM [1, 5] [%] |
| --- | --- | --- | --- | --- |
| CC(C)(C)OC(=O)n1cc(/C=C/C(=O)NNS(=O)(=O)c2ccccc2)c2ccccc21 [Example 17, (E)-tert-butyl 3-(3-oxo-3-(2-(phenylsulfonyl)hydrazinyl)prop-1-enyl)-1H-indole-1-carboxylate] | < 0 | > 100 | 83.6 | – |
| CC(C)N(NC(=O)c1ccccc1)C(=O)/C=C/c1cn(C(=O)c2ccccc2)c2ccccc12 [Example 32, (E)-N′-(3-(1-benzoyl-1H-indol-3-yl)acryloyl)-N′-isopropylbenzohydrazide] | 11 | 0.97 | 0.7 | < 11 |
| CC(C)N(NC(=O)c1ccccc1)C(=O)CCc1cn(Cc2ccccc2)c2ccccc12 [Example 21, N′-(3-(1-benzyl-1H-indol-3-yl)propanoyl)-N′-isopropylbenzohydrazide] | 1.3 | 29.6 | 29.1 | – |
| CC(C)N(NC(=O)c1ccccc1)C(=O)/C=C/c1cn(C(=O)C(C)(C)C)c2ccccc12 [Example 31, (E)-N′-isopropyl-N′-(3-(1-pivaloyl-1H-indol-3-yl)acryloyl)benzohydrazide] | 4.4 | 5.1 | 3.4 | < 11 |
| CC(C)=CCn1cc(/C=C/C(=O)N(NC(=O)c2ccccc2)C(C)C)c2ccccc21 [Example 27, (E)-N′-isopropyl-N′-(3-(1-(3-methylbut-2-enyl)-1H-indol-3-yl)acryloyl)benzohydrazide] | 1.2 | 2.6 | 0.5 | < 11 |
| CC(C)N(NC(=O)c1ccccc1)C(=O)/C=C/c1cn(C2CC2)c2ccccc12 [Example 29, (E)-N′-(3-(1-cyclopropyl-1H-indol-3-yl)acryloyl)-N′-isopropylbenzohydrazide] | < 0 | 4.6 | 1.9 | < 11 |
| CC(C)N(NC(=O)c1ccccc1)C(=O)/C=C/c1cn(C(=O)OC(C)(C)C)c2ccccc12 [Example 1, (E)-tert-butyl 3-(3-(2-benzoyl-1-isopropylhydrazinyl)-3-oxoprop-1-enyl)-1H-indole-1-carboxylate] | 7.5 | 1.4 | 1.1 | < 11 |
| COCCOc1cccc(C(=O)NN(C(=O)/C=C/c2cn(C(=O)OC(C)(C)C)c3ccccc23)C(C)C)c1 [Example 10, (E)-tert-butyl 3-(3-(1-isopropyl-2-(3-(2-methoxyethoxy)benzoyl)hydrazinyl)-3-oxoprop-1-enyl)-1H-indole-1-carboxylate] | 8.3 | 7.7 | 2.6 | < 11 |
| CC(C)N(NC(=O)c1cccc(Br)c1)C(=O)/C=C/c1cn(C(=O)OC(C)(C)C)c2ccccc12 [Example 12, (E)-tert-butyl 3-(3-(2-(3-bromobenzoyl)-1-isopropylhydrazinyl)-3-oxoprop-1-enyl)-1H-indole-1-carboxylate] | 3.9 | 2.6 | 1.7 | < 11 |
| CC(C)N(NC(=O)c1ccc(Cl)cc1)C(=O)/C=C/c1cn(C(=O)OC(C)(C)C)c2ccccc12 [Example 14, (E)-tert-butyl 3-(3-(2-(4-chlorobenzoyl)-1-isopropylhydrazinyl)-3-oxoprop-1-enyl)-1H-indole-1-carboxylate] | < 0 | 2.7 | 2.8 | < 11 |
| CC(C)N(NC(=O)c1ccc(O)cc1)C(=O)/C=C/c1cn(C(=O)OC(C)(C)C)c2ccccc12 [Example 5, (E)-tert-butyl 3-(3-(2-(4-hydroxybenzoyl)-1-isopropylhydrazinyl)-3-oxoprop-1-enyl)-1H-indole-1-carboxylate] | < 0 | 6.6 | 16.3 | < 11 |
| CC(C)N(NC(=O)c1ccc(OCCN2CCOCC2)cc1)C(=O)/C=C/c1cn(C(=O)OC(C)(C)C)c2ccccc12 [Example 9, (E)-tert-butyl 3-(3-(1-isopropyl-2-(4-(2-morpholinoethoxy)benzoyl)hydrazinyl)-3-oxoprop-1-enyl)-1H-indole-1-carboxylate] | < 0 | 19.6 | 11.8 | – |
| CC(C)N(NC(=O)c1ccccc1)C(=O)CCc1cn(C(=O)OC(C)(C)C)c2ccccc12 [Example 24, tert-butyl 3-(3-(2-benzoyl-1-isopropylhydrazinyl)-3-oxopropyl)-1H-indole-1-carboxylate] | < 0 | 9.2 | 8.6 | – |
| CC(C)N(NC(=O)c1ccccc1)C(=O)/C=C/c1cn(CC2CC2)c2ccccc12 [Example 28, (E)-N′-(3-(1-(cyclopropylmethyl)-1H-indol-3-yl)acryloyl)-N′-isopropylbenzohydrazide] | < 0 | 8.1 | 2.9 | < 11 |
| COc1ccc(C(=O)NN(C(=O)/C=C/c2cn(C(=O)OC(C)(C)C)c3ccccc23)C(C)C)cc1 [Example 7, (E)-tert-butyl 3-(3-(1-isopropyl-2-(4-methoxybenzoyl)hydrazinyl)-3-oxoprop-1-enyl)-1H-indole-1-carboxylate] | < 0 | 11.6 | 8.7 | – |
| CC(C)N(NC(=O)c1ccccn1)C(=O)/C=C/c1cn(C(=O)OC(C)(C)C)c2ccccc12 [Example 2, (E)-tert-butyl 3-(3-(1-isopropyl-2-picolinoylhydrazinyl)-3-oxoprop-1-enyl)-1H-indole-1-carboxylate] | < 0 | 11.2 | 7.6 | – |
| CC(C)N(NC(=O)c1cccc(O)c1)C(=O)/C=C/c1cn(C(=O)OC(C)(C)C)c2ccccc12 [Example 4, (E)-tert-butyl 3-(3-(2-(3-hydroxybenzoyl)-1-isopropylhydrazinyl)-3-oxoprop-1-enyl)-1H-indole-1-carboxylate] | < 0 | 12.4 | 22.4 | – |
